The values that follow come from ChEMBL document CHEMBL5465560, “Selectivity Literature for EUbOPEN Chemogenomic Library” (2024).

For experiment [1], the target named is T1, Phosphatidylinositol 5-phosphate 4-kinase type-2 gamma (Homo sapiens) (UniProt Q8TBX8).
T1 sequence (whole entry): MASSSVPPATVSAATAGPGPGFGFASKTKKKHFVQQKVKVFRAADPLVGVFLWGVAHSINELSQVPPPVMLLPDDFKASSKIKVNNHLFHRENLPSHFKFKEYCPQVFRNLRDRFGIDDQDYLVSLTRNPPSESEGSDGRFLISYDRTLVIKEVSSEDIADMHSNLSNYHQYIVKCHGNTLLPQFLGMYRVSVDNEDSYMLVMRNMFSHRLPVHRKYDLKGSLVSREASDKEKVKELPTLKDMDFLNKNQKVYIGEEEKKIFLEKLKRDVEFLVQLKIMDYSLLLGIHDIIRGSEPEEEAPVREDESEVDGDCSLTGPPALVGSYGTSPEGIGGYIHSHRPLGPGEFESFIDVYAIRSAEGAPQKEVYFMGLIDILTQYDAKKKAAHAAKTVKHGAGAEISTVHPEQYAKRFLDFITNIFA
The conditions noted are these: at 10 µM.

In experiment [2] the target is Cyclin-dependent kinase 16 (Homo sapiens) (UniProt Q00536). Briefly: Selectivity interaction (Ambit KINOMEscan and KiNATiv profiling in Jurkat cells) EUB0000090b CDK16. The format is cell-based. The conditions noted are these: at 1 µM.
Experiment [3] concerns the target 5-hydroxytryptamine receptor 2A (Homo sapiens, UniProt P28223). Briefly: Selectivity interaction (Panel of kinases, GPCRs, ion channels and transporters (enzymatic assay)) EUB0000223bCl HTR2A.
Experiment [4] deals with T2, Dual specificity protein kinase TTK (Homo sapiens) (UniProt P33981).
T2 sequence (whole entry): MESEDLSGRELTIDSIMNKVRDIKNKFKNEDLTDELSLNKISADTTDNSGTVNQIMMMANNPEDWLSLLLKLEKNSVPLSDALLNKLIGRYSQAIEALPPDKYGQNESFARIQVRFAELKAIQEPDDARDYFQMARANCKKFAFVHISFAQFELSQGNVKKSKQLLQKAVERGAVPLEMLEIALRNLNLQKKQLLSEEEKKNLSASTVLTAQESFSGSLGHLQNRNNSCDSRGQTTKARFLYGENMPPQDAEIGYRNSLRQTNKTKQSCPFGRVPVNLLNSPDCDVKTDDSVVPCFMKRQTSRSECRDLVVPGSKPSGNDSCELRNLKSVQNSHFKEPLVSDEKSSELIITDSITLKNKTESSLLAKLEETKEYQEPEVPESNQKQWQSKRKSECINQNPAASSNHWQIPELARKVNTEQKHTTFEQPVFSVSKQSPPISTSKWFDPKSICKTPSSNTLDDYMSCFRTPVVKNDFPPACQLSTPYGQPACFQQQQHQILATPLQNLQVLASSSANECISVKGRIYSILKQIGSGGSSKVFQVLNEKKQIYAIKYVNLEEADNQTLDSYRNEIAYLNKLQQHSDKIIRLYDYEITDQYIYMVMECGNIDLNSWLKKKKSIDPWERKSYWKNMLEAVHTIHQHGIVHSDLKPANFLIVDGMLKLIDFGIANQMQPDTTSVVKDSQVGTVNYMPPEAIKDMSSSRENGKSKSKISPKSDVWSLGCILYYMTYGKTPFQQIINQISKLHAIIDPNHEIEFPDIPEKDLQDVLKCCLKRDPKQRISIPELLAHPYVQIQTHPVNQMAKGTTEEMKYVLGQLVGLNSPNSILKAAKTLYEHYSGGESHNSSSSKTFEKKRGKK
Briefly: Selectivity interaction (KinomeScan (DiscoverX)) EUB0000607a TTK. The settings on record: at 10 µM.

Experiment [5] concerns the target T3, Serine/threonine-protein kinase TAO1 (Homo sapiens) (UniProt Q7L7X3).
T3 sequence (whole entry): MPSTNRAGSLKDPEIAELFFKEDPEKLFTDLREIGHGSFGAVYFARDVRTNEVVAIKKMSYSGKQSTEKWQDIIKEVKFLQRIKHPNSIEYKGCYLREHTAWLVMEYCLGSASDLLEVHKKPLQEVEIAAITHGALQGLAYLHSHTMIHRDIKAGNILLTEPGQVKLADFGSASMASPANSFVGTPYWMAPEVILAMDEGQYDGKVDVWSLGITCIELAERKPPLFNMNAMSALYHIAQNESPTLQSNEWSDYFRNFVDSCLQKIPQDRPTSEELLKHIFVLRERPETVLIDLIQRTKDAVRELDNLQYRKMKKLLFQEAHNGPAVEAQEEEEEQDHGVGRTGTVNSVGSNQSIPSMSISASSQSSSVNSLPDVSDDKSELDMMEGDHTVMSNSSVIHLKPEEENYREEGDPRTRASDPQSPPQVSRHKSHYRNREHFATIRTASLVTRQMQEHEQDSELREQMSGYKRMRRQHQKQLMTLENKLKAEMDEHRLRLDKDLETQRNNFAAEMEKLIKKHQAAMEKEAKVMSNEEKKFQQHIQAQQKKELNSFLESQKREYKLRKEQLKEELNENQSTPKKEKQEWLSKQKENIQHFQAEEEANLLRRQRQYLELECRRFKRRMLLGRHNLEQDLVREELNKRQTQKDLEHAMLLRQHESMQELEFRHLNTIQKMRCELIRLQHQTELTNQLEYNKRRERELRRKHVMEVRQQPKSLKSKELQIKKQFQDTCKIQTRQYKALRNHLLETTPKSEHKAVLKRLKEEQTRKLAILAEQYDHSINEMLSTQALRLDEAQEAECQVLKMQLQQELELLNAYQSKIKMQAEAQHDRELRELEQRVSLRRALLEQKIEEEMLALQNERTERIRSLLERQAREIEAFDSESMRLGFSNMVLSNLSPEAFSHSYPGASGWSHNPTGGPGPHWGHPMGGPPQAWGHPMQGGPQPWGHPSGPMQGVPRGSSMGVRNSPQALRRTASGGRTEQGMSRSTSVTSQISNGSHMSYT
Kind of experiment: Selectivity interaction (KinomeScan (DiscoverX)) EUB0000607a TAOK1. The settings on record: at 10 µM.

Experiment [6] concerns the target Tyrosine-protein kinase FRK (Homo sapiens) (UniProt P42685). Briefly: Selectivity interaction (Kinase panel (Invitrogen)) EUB0000639a FRK. The settings on record: at 200 nM.
The target in experiment [7] is Cyclin-dependent kinase 13 (Homo sapiens, UniProt Q14004). Kind of experiment: Selectivity interaction (KinomeScan (DiscoverX)) EUB0000229b CDK13. The settings on record: at 10 µM.
In experiment [8] the target is Mitogen-activated protein kinase 9 (Homo sapiens, UniProt P45984). Kind of experiment: Selectivity interaction (ActivX KiNativ screen (ex vivo kinase selectivity in human PBMCs)) EUB0001619a MAPK9. The format is cell-based. The settings on record: PBMC, at 1 µM.
The target in experiment [9] is Casein kinase I isoform alpha (Homo sapiens, UniProt P48729). Briefly: Selectivity interaction (KinomeScan (DiscoverX)) EUB0001619a CSNK1A1. The conditions noted are these: at 1 µM.
Casein kinase I isoform alpha, sequence (P48729 2-337 limits assumed): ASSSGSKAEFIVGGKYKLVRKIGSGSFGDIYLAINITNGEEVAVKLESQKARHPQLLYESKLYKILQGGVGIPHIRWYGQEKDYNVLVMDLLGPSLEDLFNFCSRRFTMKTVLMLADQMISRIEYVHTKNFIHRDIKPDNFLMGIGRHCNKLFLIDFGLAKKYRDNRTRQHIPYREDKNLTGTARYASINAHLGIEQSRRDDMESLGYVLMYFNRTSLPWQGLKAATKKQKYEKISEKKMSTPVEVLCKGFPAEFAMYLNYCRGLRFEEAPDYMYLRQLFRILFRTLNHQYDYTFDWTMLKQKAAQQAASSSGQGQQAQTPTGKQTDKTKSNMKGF

5-hydroxytryptamine receptor 2A, sequence (P28223 whole entry): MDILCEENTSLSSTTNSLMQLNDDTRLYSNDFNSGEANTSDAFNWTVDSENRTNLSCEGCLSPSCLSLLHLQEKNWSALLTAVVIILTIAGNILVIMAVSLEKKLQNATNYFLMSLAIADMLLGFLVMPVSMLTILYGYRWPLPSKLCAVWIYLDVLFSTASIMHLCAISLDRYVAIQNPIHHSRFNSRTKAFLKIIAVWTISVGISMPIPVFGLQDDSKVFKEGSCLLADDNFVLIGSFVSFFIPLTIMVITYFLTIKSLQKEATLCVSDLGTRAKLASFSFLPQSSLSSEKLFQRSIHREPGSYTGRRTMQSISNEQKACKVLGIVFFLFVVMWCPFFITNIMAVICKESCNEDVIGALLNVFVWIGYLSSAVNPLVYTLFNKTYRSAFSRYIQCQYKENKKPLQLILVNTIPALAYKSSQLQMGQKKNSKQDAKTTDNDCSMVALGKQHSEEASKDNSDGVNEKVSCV
Tyrosine-protein kinase FRK (Homo sapiens), sequence (P42685 whole entry): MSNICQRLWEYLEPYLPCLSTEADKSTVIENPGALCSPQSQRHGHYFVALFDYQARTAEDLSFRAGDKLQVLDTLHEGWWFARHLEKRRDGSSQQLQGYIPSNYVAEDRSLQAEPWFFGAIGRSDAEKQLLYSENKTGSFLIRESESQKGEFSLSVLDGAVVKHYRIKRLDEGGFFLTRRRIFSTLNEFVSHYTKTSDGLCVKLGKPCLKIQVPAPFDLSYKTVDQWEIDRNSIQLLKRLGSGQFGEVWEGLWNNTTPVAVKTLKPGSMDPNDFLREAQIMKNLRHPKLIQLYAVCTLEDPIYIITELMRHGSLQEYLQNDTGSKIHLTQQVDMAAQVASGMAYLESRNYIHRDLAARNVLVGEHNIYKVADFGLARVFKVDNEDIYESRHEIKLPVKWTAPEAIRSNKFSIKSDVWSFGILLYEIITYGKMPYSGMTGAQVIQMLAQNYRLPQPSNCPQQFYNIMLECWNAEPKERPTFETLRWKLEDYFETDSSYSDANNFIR
Cyclin-dependent kinase 13, sequence (Q14004 whole entry, looked up): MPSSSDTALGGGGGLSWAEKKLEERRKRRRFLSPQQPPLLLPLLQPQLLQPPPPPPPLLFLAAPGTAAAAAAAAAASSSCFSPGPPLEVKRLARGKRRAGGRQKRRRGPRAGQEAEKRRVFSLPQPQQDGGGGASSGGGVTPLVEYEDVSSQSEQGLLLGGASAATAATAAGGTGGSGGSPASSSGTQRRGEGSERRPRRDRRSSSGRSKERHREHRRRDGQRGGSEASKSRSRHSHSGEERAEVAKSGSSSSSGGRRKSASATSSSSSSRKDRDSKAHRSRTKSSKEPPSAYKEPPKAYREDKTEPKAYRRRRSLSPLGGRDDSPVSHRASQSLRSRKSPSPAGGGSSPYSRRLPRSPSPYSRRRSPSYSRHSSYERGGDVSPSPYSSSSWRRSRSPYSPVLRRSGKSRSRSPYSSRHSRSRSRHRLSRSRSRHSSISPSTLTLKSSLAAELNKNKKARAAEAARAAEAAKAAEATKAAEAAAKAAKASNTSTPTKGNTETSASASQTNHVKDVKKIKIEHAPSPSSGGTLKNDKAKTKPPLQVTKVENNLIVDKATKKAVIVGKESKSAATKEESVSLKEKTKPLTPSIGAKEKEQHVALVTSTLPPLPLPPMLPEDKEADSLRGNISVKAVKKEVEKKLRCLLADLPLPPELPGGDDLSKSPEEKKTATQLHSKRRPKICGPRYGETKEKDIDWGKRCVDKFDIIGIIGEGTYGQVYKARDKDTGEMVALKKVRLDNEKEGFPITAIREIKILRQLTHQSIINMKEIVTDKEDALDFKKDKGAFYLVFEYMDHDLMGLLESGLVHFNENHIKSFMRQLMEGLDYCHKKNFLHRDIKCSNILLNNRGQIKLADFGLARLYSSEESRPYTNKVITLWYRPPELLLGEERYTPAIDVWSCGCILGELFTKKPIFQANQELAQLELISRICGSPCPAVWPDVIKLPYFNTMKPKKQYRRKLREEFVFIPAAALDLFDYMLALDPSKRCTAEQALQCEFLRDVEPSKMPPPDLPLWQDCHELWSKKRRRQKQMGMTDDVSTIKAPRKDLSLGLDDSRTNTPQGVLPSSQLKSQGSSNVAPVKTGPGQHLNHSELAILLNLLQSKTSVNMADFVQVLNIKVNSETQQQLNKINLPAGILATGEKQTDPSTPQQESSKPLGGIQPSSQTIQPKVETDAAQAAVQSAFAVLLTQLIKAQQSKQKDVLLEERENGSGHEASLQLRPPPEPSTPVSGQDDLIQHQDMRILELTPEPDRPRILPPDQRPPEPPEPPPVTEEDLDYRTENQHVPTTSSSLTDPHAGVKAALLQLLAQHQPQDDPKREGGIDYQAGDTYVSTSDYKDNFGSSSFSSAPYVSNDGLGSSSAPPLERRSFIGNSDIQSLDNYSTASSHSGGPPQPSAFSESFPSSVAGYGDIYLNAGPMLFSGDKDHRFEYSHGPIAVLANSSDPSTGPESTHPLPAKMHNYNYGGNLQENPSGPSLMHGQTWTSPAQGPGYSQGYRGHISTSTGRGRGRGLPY
Cyclin-dependent kinase 16 (Homo sapiens), sequence (Q00536 whole entry): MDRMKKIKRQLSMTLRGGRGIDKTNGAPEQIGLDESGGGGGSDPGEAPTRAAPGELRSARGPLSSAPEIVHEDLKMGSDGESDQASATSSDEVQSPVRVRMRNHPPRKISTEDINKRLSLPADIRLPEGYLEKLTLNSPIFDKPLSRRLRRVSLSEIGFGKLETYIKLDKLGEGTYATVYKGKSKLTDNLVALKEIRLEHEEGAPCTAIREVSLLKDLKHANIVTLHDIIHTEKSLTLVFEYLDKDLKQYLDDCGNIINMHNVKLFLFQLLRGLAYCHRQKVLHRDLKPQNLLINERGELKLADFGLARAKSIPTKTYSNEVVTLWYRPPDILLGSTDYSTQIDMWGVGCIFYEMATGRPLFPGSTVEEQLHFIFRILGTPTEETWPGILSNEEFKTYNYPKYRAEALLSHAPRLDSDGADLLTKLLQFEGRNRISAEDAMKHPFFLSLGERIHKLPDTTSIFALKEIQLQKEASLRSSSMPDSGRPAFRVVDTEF
Mitogen-activated protein kinase 9, sequence (P45984 whole entry, looked up, canonical isoform): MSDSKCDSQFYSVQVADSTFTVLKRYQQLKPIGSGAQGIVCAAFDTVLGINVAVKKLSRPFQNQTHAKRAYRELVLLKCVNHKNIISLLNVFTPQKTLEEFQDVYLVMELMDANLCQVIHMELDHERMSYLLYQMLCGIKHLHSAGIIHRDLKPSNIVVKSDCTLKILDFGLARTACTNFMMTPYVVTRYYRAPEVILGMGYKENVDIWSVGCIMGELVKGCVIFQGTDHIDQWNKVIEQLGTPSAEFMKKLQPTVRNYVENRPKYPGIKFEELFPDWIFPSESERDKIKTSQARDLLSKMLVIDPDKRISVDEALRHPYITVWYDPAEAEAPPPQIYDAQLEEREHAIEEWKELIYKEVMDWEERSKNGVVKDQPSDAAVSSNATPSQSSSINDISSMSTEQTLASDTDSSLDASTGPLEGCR

Consider `Cc1cc([C@@H](C)Nc2ccccc2C(=O)O)c2nc(N3CCOCC3)cc(=O)n2c1` [AZD-6482], for which, in [1], the % of control turned out to be 58%. The compound `CN(C)C/C=C/C(=O)Nc1ccc(C(=O)N2CCCC(Nc3ncc(Cl)c(-c4c[nH]c5ccccc45)n3)C2)cc1` (centres undefined) came in with a % of control in experiment [2] of 68%.

Consider `COc1cc(C(=O)N2CC[C@@H](O)[C@@H](N)C2)cc2nc(-c3cc4ccccc4n3CC3CC3)n(C)c12`, for which the pXC50 in experiment [3] is 4.9 M. Regarding `CNC(=O)Nc1ccc(-c2nc(N3CC4CCC(C3)O4)c3cnn(C4CCC5(CC4)OCCO5)c3n2)cc1`, the % of control in [4] and in experiment [5] was 100% each time.

Compound `CC[C@@H]1[C@H](F)C(=O)N[C@@H]1COc1nccc2cc(C(N)=O)c(OC)cc12` [ZIMLOVISERTIB] registered a % of inhibition in [6] of 6.43%. `COc1cc(N(C)c2ccnc3ccc(C(F)(F)F)cc23)cc(OC)c1OC`: the % binding in experiment [7] was found to be 88%. In experiment [8], `N#Cc1cccc(-c2c[nH]c3ncnc(N4CCOCC4)c23)c1` registered a % of inhibition of 5%. Besides, in experiment [9], the % of control is 100%.
